Measurements taken from US11208629B2, “Non-human primate induced pluripotent stem cell derived hepatocytes and uses thereof” (Hoffmann-La Roche Inc., priority 2016, dated 2021).

Key:
[1] = system: Cynomolgus IPSCs; assay: Hepatocyte differentiation of cynomolgus IPSCs (supplement optimisation)
Description: To initialize differentiation, the cells are incubated in a defined medium comprising a Wnt pathway activator.
Generally, media change was performed every day until day 16 and afterwards every second day. Basic medium for differentiation was MT basic medium (DMEM/F12+Glutamax with insulin 7 μg/ml, monothioglycerole 450 μM, 1× Lipid concentrate, BSA 5 mg/ml, sodium selenite 14 ng/ml, 1× non-essential amino acids, heparin 2 mg/ml, transferrin 15 μg/ml, 220 μM ascorbic acid-2-phosphate) or changing to RPMI1640 medium+B27 1:50+non-essential amino acids 1:100 from day 3 of differentiation onwards. On day 1 of differentiation, medium was changed to MT basic medium with 100 ng/ml ActivinA, 10 μM Ly294002 and 1 μM CP21 (Roche GSK3β inhibitor). Then, cells were treated for two days with 100 ng/ml ActivinA, 0.25 μM LDN193189 and 1 μM CP21. At day 4, the medium was changed for three days to the supplements 50 ng/ml ActivinA, 2% knock-out serum replacement (KSR) and 0.5% DMSO. The protocol was modified to a prolonged step of high ActivinA which consisted of 100 ng/ml ActivinA at day 4 of differentiation. To induce hepatic specification, cells were maintained for four days in medium supplemented with 2% KSR, 10 ng/ml BMP4, 10 ng/ml FGF2 or FGF10 and 0.5% DMSO. […] Modification included the addition of 1 μM DAPT between day 11 and day 20. Further modifications included the change of the basis medium for maturation at day 11 to HBM medium+SingleQuots™ (Lonza).
At day 21 of differentiation, efficiency of differentiation was analyzed using two different quantification methods. First, the area covered by ALB positive cells was determined and second the area of cells with typical hepatocyte morphology was evaluated (FIG. 6A and FIG. 6B).

[2] = system: NHP-IPSC-derived hepatocytes; assay: Hepatotoxicity assay (WST-1 cell viability); assay type: cell-based, Cynomolgus monkey; details: 100 μM, 24 hours, WST-1, MACS-enriched cells in matrigel sandwich
Description: NHP-IPSC-derived hepatocytes were enriched using MACS and replated in matrigel sandwich condition as described above. To assess cell response to hepatotoxic compounds cells were treated with 100 μM troglitazone (Sigma) for 24 hours. Cell viability was measured using the WST-1 reagent (Sigma). 10 μl WST-1 reagent were added directly to the medium (1:10 dilution) and cells were incubated for 4 hours at 37° C., 5% CO2. Plates were stirred for 15 seconds and absorbance at 405 nm was measured.
To assess the feasibility of NHP IPSC-derived hepatocytes as model system for drug-induced liver injury, we treated the hepatocytes with Troglitazone, a small molecule with known hepatotoxic effects.

In the case of Cn1cc(C2=C(c3cccc(N)c3)C(=O)NC2=O)c2ccccc21 [CP21, 3-(3-Amino-phenyl)-4-(1-methyl-1H-indol-3-yl)-pyrrole-2,5-dione], the “efficiency of differentiation of pluripotent stem cells into hepatocytes” value ([1]; CP21 1 μM, cell density 45000/cm^2, tested 0 to 2 μM, 30000 to 75000/cm^2) was “most efficient differentiation” and the “cell viability during differentiation” value ([1]; CP21 concentrations above 2 μM) was “decreased cell viability”.
With Cc1c(C)c2c(c(C)c1O)CCC(C)(COc1ccc(CC3SC(=O)NC3=O)cc1)O2 (stereo not shown) [Troglitazone] the “cell viability compared to control cells” value [2] was “decrease in cell viability”.
For “FGF2: fibroblast growth factor used for hepatic specification”, the “ALB positive cells at day 21” value ([1]; 10 ng/ml FGF2 versus FGF10, hepatic specification step) was “more ALB positive cells than FGF10 treatment”.
